Laboratory results taken from US20030219467A1, “Method for the inhibition of methanogensis” (The Board of Regents of the University of Nebraska, priority 2001, published 2003).
In brackets after ≈: the same amount, converted by molar mass. Where two headings read alike, the source gives them in different places.

How the values were obtained:
ruminal organisms = assay: Ruminal fluid batch culture (artificial rumen): growth inhibition / methane formation; format: cell-based, steers
M. marburgensis [1] = assay: microbe, parasite or virus in culture; format: cell-based; details: for inhibition of growth of Methanothermobacter marburgensis (figure legend): FIG. 4: 1000 μM A2, 300 μM and 500 μM A4; for MIC: read-out: Inhibition of Growth M. marburgensis: concentration of compound which completely inhibited growth
RFA-P synthase = molecular target: T1, RFA-P synthase (Archaeoglobus fulgidus, UniProt O28190); assay: biochemical; format: biochemical
T1 sequence (O28190 1-313): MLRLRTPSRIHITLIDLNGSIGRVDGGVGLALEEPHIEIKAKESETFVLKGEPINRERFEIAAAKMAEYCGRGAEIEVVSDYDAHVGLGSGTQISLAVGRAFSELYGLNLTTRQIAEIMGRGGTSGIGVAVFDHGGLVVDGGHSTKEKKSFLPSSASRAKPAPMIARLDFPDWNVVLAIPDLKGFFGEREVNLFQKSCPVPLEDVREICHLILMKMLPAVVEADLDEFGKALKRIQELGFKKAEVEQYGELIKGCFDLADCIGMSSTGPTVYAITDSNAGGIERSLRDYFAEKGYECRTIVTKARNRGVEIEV

Moorella thermoacetica = assay: Inhibition of growth of acetogen Moorella thermoacetica; format: cell-based; details: FIG. 5
M. marburgensis [2] = format: cell-based
[3] = inhibition constant, substrates at saturating concentrations, first tested at 1 mM, competitive inhibition fit, read-out: Ki
[4] = Methanothermobacter marburgensis, H2/CO2-grown, 65° C., OD 580 nm, words refer to 1 millimolar
[5] = total methane over 48 hours, compound at (100), 600 micromoles without inhibitor
[6] = Methanothermobacter marburgensis

| SMILES | Ki (RFA-P synthase; [3]) | MIC (M. marburgensis [1]; [4]) | further results |
| --- | --- | --- | --- |
| O=C(O)c1ccc(NCCO)cc1 [4-(2-hydroxyethylamino)benzoate] | – | – | methane production, % of the control level (ruminal organisms; artificial rumen, 9 mM compound): 2.5% |
| CCNc1ccc(C(=O)O)cc1 [4-(ethylamino)benzoate] | – | – | methane production, % of the control level (ruminal organisms): 2.5% |
| CC(C)Nc1ccc(C(=O)O)cc1 [4-(isopropylamino)benzoic acid] | – | – | inhibition of methanogen growth (figure legend) (M. marburgensis [1]; FIG. 7A: M. marburgensis, 15, 25, 75 and 90 micromoles of compound, OD 580 nm): inhibition of methanogen growth; inhibition of RFA-P synthase (figure legend) (RFA-P synthase): inhibition of RFA-P synthase |
| O=C(O)c1ccc(NCc2ccccn2)cc1 [4-[(2-pyridylmethyl)amino]benzoic acid] | – | – | concentration that completely arrests growth of and methane formation by M. marburgensis (M. marburgensis [1]): 100 mM; reversal of inhibition by supplementing the medium with pABA (M. marburgensis [1]; M. marburgensis): fully reversed |
| NCc1ccc(B(O)O)cc1 [Compound A2] | 140 µM | – | inhibition of growth of Methanothermobacter marburgensis (figure legend) (M. marburgensis [1]): inhibit growth; inhibition of growth of Moorella thermoacetica (figure legend) (Moorella thermoacetica): inability |
| CC(C)Nc1ccc(C(=O)O)cc1 [Compound A3] | 9 µM | 100 µM (≈ 17.9 µg/mL) | Methane Produced (M. marburgensis [2]; [5]): 0.01 μ moles |
| CC(C)CNc1ccc(C(=O)O)cc1 [Compound A4] | 10 µM | 500 µM (≈ 96.6 µg/mL) | inhibition of growth of Methanothermobacter marburgensis (figure legend) (M. marburgensis [1]): inhibit growth; inhibition of RFA-P synthase (figure legend) (RFA-P synthase): inhibit RFA-P synthase; Methane Produced (M. marburgensis [2]; total methane over 48 hours, compound at (500), 600 micromoles without inhibitor): 0.02 μ moles; inhibition of growth of Moorella thermoacetica (figure legend) (Moorella thermoacetica): inability |
| O=C(O)c1ccc(NCCO)cc1 [Compound A5] | 17 µM | 300 µM (≈ 54.4 µg/mL) | – |
| O=C(O)c1ccc(NCc2ccco2)cc1 [Compound A6] | 7.5 µM | 300 µM (≈ 65.2 µg/mL) | – |
| NCc1ccc(C(=O)O)cc1 [Compound A7, 4-(aminomethyl)benzoic acid] | 75 µM | – | inhibition of RFA-P synthase (figure legend) (RFA-P synthase): inhibit RFA-P synthase; Methane Produced (M. marburgensis [2]): 0.07 μ moles |
| Nc1ccc(CC(=O)O)cc1 [Compound A9, (4-aminophenyl)acetic acid] | 60 µM | – | MIC (M. marburgensis [1]; [6]): 1000 µM (≈ 151 µg/mL) |
| CCOC(=O)c1ccc(NC(C)C)cc1 [Compound A11] | 130 µM | 1000 µM (≈ 207 µg/mL) | – |
| Nc1ccc(S(=O)(=O)O)cc1 [Compound A12] | 7 µM | – | – |
| CC(C)OP(=O)(O)c1ccc(N)cc1 [Compound A13] | – | – | MIC (M. marburgensis [1]; [6]): 1000 µM (≈ 215 µg/mL); Ki (RFA-P synthase): 15 µM |
| CCCCOP(=O)(O)c1ccc(N)cc1 [Compound A14] | – | – | Ki (RFA-P synthase): 25 µM |
| OCc1ccc(B(O)O)cc1 [Compound A15] | 9 µM | – | MIC (M. marburgensis [1]; [6]): 100 µM (≈ 15.2 µg/mL) |
| Cc1cc(C(=O)O)ccc1NC(C)C [Compound A16] | 23 µM | 300 µM (≈ 58 µg/mL) | – |
| CCNc1ccc(C(=O)O)cc1 [Compound A19] | – | – | MIC (M. marburgensis [1]; [6]): 300 µM (≈ 49.6 µg/mL); Ki (RFA-P synthase): 155 µM |
| CCCNc1ccc(C(=O)O)cc1 [Compound A20] | 20 µM | 600 µM (≈ 108 µg/mL) | inhibition of RFA-P synthase (figure legend) (RFA-P synthase): inhibit RFA-P synthase; Methane Produced (M. marburgensis [2]; total methane over 48 hours, compound at (600), 600 micromoles without inhibitor): 0.05 μ moles |
| CCCCCCNc1ccc(C(=O)O)cc1 [Compound A21] | – | 500 µM (≈ 111 µg/mL) | – |
| CC(Nc1ccc(C(=O)O)cc1)C(F)(F)F (centres unmarked) [Compound A22] | 59 µM | – | – |
| CC(C)CCNc1ccc(C(=O)O)cc1 [Compound A24] | – | 1000 µM (≈ 207 µg/mL) | – |

| SMILES | Ki (RFA-P synthase; [3]) | MIC (M. marburgensis [1]; [4]) | further results |
| --- | --- | --- | --- |
| O=C(O)c1ccc(NC2CCCC2)cc1 [Compound A25] | – | 1000 µM (≈ 205 µg/mL) | – |
| O=C(O)c1ccc(NCc2ccoc2)cc1 [Compound A26] | 84 µM | 100 µM (≈ 21.7 µg/mL) | Methane Produced (M. marburgensis [2]; [5]): 0.06 μ moles |
| O=C(O)c1ccc(NCc2cccs2)cc1 [Compound A27] | 72 µM | – | – |
| O=C(O)c1ccc(NCc2ccsc2)cc1 [Compound A28] | 55 µM | 1000 µM (≈ 233 µg/mL) | – |
| O=C(O)c1ccc(NCc2ccccc2)cc1 [Compound A29] | 51 µM | 500 µM (≈ 114 µg/mL) | – |
| O=C(O)c1ccc(NCc2c(F)c(F)c(F)c(F)c2F)cc1 [Compound A30] | – | 500 µM (≈ 159 µg/mL) | – |
| O=C(O)c1ccc(NCc2ccccc2O)cc1 [Compound A31] | 705 µM | 1000 µM (≈ 243 µg/mL) | – |
| O=C(O)c1ccc(NCc2ccc(O)cc2)cc1 [Compound A32] | – | 300 µM (≈ 73 µg/mL) | – |
| O=C(O)c1ccc(NCc2ccccn2)cc1 [Compound A33] | 19 µM | 0.1 µM (≈ 0.0228 µg/mL) | Methane Produced (M. marburgensis [2]; total methane over 48 hours, compound at (0.1), 600 micromoles without inhibitor): 0.08 μ moles |
| Cc1cccc(CNc2ccc(C(=O)O)cc2)n1 [Compound A34] | 19 µM | – | – |
| O=C(O)c1ccc(NCc2ccc3ccccc3n2)cc1 [Compound A35] | – | 1000 µM (≈ 278 µg/mL) | – |
| O=C(O)c1ccc(NCc2ccncc2)cc1 [Compound A36] | – | 1000 µM (≈ 228 µg/mL) | – |
| Nc1ccc(C(=O)O)cc1O [Compound A38] | – | 500 µM (≈ 76.6 µg/mL) | – |
| Nc1cc(C(=O)O)ccn1 [Compound A39] | – | 1000 µM (≈ 138 µg/mL) | – |
| O=C(O)c1ccc(CO)cc1 [Compound A40] | 270 µM | – | – |
| CCC(C(=O)O)c1ccc(N)cc1 (centres unmarked) [Compound A41] | – | 500 µM (≈ 89.6 µg/mL) | – |
| O=C(O)Cc1ccc(NCc2ccco2)cc1 [Compound A42] | – | 1000 µM (≈ 231 µg/mL) | – |
| Nc1cccc(CC(=O)O)c1 [Compound A43] | – | 500 µM (≈ 75.6 µg/mL) | – |
| O=C(O)Cc1ccc(O)cc1 [Compound A44] | – | – | Ki (RFA-P synthase): 115 µM |
| Cc1cc(S(=O)(=O)O)ccc1N [Compound A45] | – | – | MIC (M. marburgensis [1]; [6]): 500 µM (≈ 93.6 µg/mL) |
| CCOP(=O)(OCC)c1ccc(NCC(C)C)cc1 [Compound A47] | – | – | MIC (M. marburgensis [1]): 500 µM (≈ 143 µg/mL) |
| CCOP(=O)(O)c1ccc(N)cc1 [Compound A48] | – | – | Ki (RFA-P synthase): 65 µM |

| SMILES | Ki (RFA-P synthase; [3]) | MIC (M. marburgensis [1]; [4]) | further results |
| --- | --- | --- | --- |
| Nc1ccc(P(=O)(O)O)cc1 [Compound A49] | – | – | Ki (RFA-P synthase): 85 µM |
| CC(C)Nc1ccc(P(=O)(O)OC(C)C)cc1 [Compound A50] | – | – | MIC (M. marburgensis [1]; [6]): 100 µM (≈ 25.7 µg/mL) |
| CC(C)OP(=O)(O)c1ccc(NCc2ccco2)cc1 [Compound A51] | – | – | MIC (M. marburgensis [1]; [6]): 100 µM (≈ 29.5 µg/mL) |
| CC(C)OP(=O)(O)c1ccc(NCc2cccnc2)cc1 [Compound A52] | – | – | MIC (M. marburgensis [1]; [6]): 1000 µM (≈ 306 µg/mL) |
| CCCCOP(=O)(O)c1ccc(NC(C)C)cc1 [Compound A53] | – | – | MIC (M. marburgensis [1]; [6]): 300 µM (≈ 81.4 µg/mL); Ki (RFA-P synthase): 25 µM |
| CCCCOP(=O)(O)c1ccc(NCc2ccccn2)cc1 [Compound A55] | – | – | MIC (M. marburgensis [1]; [6]): 100 µM (≈ 32 µg/mL); Ki (RFA-P synthase): 25 µM |
| CNc1ccc(C(=O)O)cc1 [Compound A56] | 145 µM | – | – |
| CCCCNc1ccc(C(=O)O)cc1 [Compound A58] | – | – | MIC (M. marburgensis [1]; [6]): 1000 µM (≈ 193 µg/mL) |
| CCCOC(=O)c1ccc(NC(C)C)cc1 [Compound A65] | 130 µM | – | – |
| CCCCOC(=O)c1ccc(NC(C)C)cc1 [Compound A66] | 190 µM | 1000 µM (≈ 235 µg/mL) | – |
| OB(O)c1ccncc1 [Compound A74] | 200 µM | – | – |
| Nc1ccc(/C=C/C(=O)O)cc1 [Compound A80] | – | 500 µM (≈ 81.6 µg/mL) | – |
| O=C(O)[C@H]1CC[C@@H](NCc2ccco2)CC1 [Compound B1] | 63 µM | 0.1 µM (≈ 0.0223 µg/mL) | – |
| O=C(O)[C@H]1CC[C@H](NCc2ccco2)CC1 [Compound B2] | – | 500 µM (≈ 112 µg/mL) | – |
| CC(C)CN[C@H]1CC[C@@H](C(=O)O)CC1 [Compound B3] | 44 µM | – | – |
| N[C@H]1CC[C@H](C(=O)O)CC1 [Compound B7] | – | 500 µM (≈ 71.6 µg/mL) | – |
| O=P(O)(O)OC[C@H]1N[C@@H](c2ccccc2)[C@H](O)[C@@H]1O [Compound C1] | 30 µM | 500 µM (≈ 145 µg/mL) | – |
| OCc1ccc([C@@H]2N[C@H](CO)[C@@H](O)[C@H]2O)cc1 [Compound C4] | – | 1000 µM (≈ 239 µg/mL) | – |
| O=C(O)c1c[nH]cn1 [Compound D3] | – | – | MIC (M. marburgensis [1]; [6]): 1000 µM (≈ 112 µg/mL) |
| Nc1nc(CC(=O)O)cs1 [Compound D6] | – | 500 µM (≈ 79.1 µg/mL) | – |
| Nc1n[nH]c(C(=O)O)n1 [Compound D7] | – | 1000 µM (≈ 128 µg/mL) | – |
